In this assay the target is T1, human factor XIIIa (FXIIIa) (Homo sapiens, UniProt P00488).
T1 construct: gene F13A1
T1 sequence (P00488 39-732): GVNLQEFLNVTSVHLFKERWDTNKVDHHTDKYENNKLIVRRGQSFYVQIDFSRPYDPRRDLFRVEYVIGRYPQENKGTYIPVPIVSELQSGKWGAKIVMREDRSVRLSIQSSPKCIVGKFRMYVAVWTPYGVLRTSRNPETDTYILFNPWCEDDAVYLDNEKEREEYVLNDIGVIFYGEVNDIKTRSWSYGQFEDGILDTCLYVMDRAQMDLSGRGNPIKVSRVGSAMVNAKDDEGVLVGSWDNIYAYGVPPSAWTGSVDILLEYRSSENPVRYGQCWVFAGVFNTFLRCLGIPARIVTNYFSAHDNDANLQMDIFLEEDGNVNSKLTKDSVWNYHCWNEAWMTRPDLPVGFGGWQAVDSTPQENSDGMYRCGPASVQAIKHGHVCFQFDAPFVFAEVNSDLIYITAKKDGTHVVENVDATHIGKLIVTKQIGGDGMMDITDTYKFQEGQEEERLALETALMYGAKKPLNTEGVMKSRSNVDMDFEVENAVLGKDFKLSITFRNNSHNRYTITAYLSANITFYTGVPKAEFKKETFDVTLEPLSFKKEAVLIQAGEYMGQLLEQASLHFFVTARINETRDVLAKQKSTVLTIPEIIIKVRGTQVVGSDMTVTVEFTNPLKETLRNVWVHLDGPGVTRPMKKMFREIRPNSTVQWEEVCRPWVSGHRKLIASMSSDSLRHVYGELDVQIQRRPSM
Put plainly: bisubstrate fluorescence trans-glutamination assay (dansylcadaverine / N,N-dimethylcasein). Type of assay: biochemical.

For `C=C(CC)C(=O)c1ccc(OCC(=O)O)c(Cl)c1Cl` [compound 1, Ethacrynic acid], the midpoint of inhibition, the IC50, lay at 106 ± 32.5 µM.

Source of the values: article PMC9158266, “Ethacrynic acid is an inhibitor of human factor XIIIa” (BMC Pharmacology & Toxicology, 2022).
